Results on 12 compounds are retold here after ChEMBL document CHEMBL1155953, “Synthesis and biological evaluation of C-12' substituted vinflunine derivatives” (Bioorg Med Chem Lett, 2008).

The test system of this test is A549. Nature of the test: Cytotoxicity against human A549 cells by SRB assay. Type of test: functional, cell-based. A general note: The SRB assay estimates cell density from bound dye.
Usually IC50 stands for the point on the concentration scale where inhibition reaches its midpoint. High values mean a need for much substance, low ones inhibition by little substance. `CC[C@]12C=CCN3CC[C@@]4(c5cc([C@@]6(C(=O)OC)C[C@H]7C[C@@H](C(C)(F)F)CN(Cc8c6[nH]c6ccc(NC)cc86)C7)c(OC)cc5N(C)[C@H]4[C@@](O)(C(=O)OC)[C@@H]1OC(C)=O)[C@@H]32` showed a half-maximal inhibitory concentration (IC50) of 6.91 µM. Turning to `CC[C@]12C=CCN3CC[C@@]4(c5cc([C@@]6(C(=O)OC)C[C@H]7C[C@@H](C(C)(F)F)CN(Cc8c6[nH]c6ccc(CNCCO)cc86)C7)c(OC)cc5N(C)[C@H]4[C@@](O)(C(=O)OC)[C@@H]1OC(C)=O)[C@@H]32`, it took 95.5 µM to reach half-maximal inhibition (IC50). Next, `CC[C@]12C=CCN3CC[C@@]4(c5cc([C@@]6(C(=O)OC)C[C@H]7C[C@@H](C(C)(F)F)CN(Cc8c6[nH]c6ccc(CNCCCN9CCOCC9)cc86)C7)c(OC)cc5N(C)[C@H]4[C@@](O)(C(=O)OC)[C@@H]1OC(C)=O)[C@@H]32`: greater than 100 µM. Next, `CC[C@]12C=CCN3CC[C@@]4(c5cc([C@@]6(C(=O)OC)C[C@H]7C[C@@H](C(C)(F)F)CN(Cc8c6[nH]c6ccc(Nc9ccccc9)cc86)C7)c(OC)cc5N(C)[C@H]4[C@@](O)(C(=O)OC)[C@@H]1OC(C)=O)[C@@H]32`: 1.86 µM; `CC[C@]12C=CCN3CC[C@@]4(c5cc([C@@]6(C(=O)OC)C[C@H]7C[C@@H](C(C)(F)F)CN(Cc8c6[nH]c6ccc(CN9CCOCC9)cc86)C7)c(OC)cc5N(C)[C@H]4[C@@](O)(C(=O)OC)[C@@H]1OC(C)=O)[C@@H]32`: 3.93 µM; `CC[C@]12C=CCN3CC[C@@]4(c5cc([C@@]6(C(=O)OC)C[C@H]7C[C@@H](C(C)(F)F)CN(CCc8c6[nH]c6ccc(N)cc86)C7)c(OC)cc5N(C)[C@H]4[C@@](O)(C(=O)OC)[C@@H]1OC(C)=O)[C@@H]32`: 37.8 µM. Turning to `CC[C@]12C=CCN3CC[C@@]4(c5cc([C@@]6(C(=O)OC)C[C@H]7C[C@@H](C(C)(F)F)CN(CCc8c6[nH]c6ccc(N(C)C)cc86)C7)c(OC)cc5N(C)[C@H]4[C@@](O)(C(=O)OC)[C@@H]1OC(C)=O)[C@@H]32`, 0.22 µM corresponded to half-maximal inhibition (IC50). With `CCCCNCc1ccc2[nH]c3c(c2c1)CN1C[C@H](C[C@@H](C(C)(F)F)C1)C[C@]3(C(=O)OC)c1cc2c(cc1OC)N(C)[C@H]1[C@@](O)(C(=O)OC)[C@H](OC(C)=O)[C@]3(CC)C=CCN4CC[C@]21[C@@H]43` the figure was 1.74 µM; with `CC[C@]12C=CCN3CC[C@@]4(c5cc([C@@]6(C(=O)OC)C[C@H]7C[C@@H](C(C)(F)F)CN(Cc8c6[nH]c6ccc(CNCCN9CCOCC9)cc86)C7)c(OC)cc5N(C)[C@H]4[C@@](O)(C(=O)OC)[C@@H]1OC(C)=O)[C@@H]32`, greater than 100 µM; with `CC[C@]12C=CCN3CC[C@@]4(c5cc([C@@]6(C(=O)OC)C[C@H]7C[C@@H](C(C)(F)F)CN(Cc8c6[nH]c6ccc(CNc9ccc(OC)cc9)cc86)C7)c(OC)cc5N(C)[C@H]4[C@@](O)(C(=O)OC)[C@@H]1OC(C)=O)[C@@H]32`, 3.52 µM.

`C=CCNc1ccc2[nH]c3c(c2c1)CN1C[C@H](C[C@@H](C(C)(F)F)C1)C[C@]3(C(=O)OC)c1cc2c(cc1OC)N(C)[C@H]1[C@@](O)(C(=O)OC)[C@H](OC(C)=O)[C@]3(CC)C=CCN4CC[C@]21[C@@H]43` came in with an IC50 of 0.51 µM. Next, `CC[C@]12C=CCN3CC[C@@]4(c5cc([C@@]6(C(=O)OC)C[C@@H]7C[C@@H](C(C)(F)F)CN(Cc8c6[nH]c6ccccc86)C7)c(OC)cc5N(C)[C@H]4[C@@](O)(C(=O)OC)[C@@H]1OC(C)=O)[C@@H]32` [VINFLUNINE]: 0.08 µM.
